Marks after values point to notes of the source that are not given here.
Assays:
[1] = tested on: λ carrageenin induced edema in rats; experiment: λ carrageenin induced paw edema; assay type: in vivo
Experimental: Carrageenin induced paw edema: Rats were injected with 0.1 ml of 1% λ carrageenin (St.-Louis, Mo.) into the subplantar side of the left hind paw. The paw was marked with ink at the level of the lateral malleolus and dipped in perspex cell up to this mark. The paw volume was measured with an Ugo Basile Plethysmometer (No: 61402) (7140 Comerio-varese, Italy) immediately and 3 h after injecting the λ carrageenin suspension. […] Significant reductions in the paw volume compared to vehicle treated control animals were considered as anti-inflammatory response. Percentage inhibition of oedema was calculated as follows: % Inhibition=(1−VT/VC)×100 VT=Paw volume in drug treated rats, VC=Paw volume in control group of rats.

[2] = tested on: impairment of memory acquisition in step-down test in rats (scopolamine); experiment: Passive avoidance task (step-down test), scopolamine-induced impairment of memory acquisition; assay type: in vivo
Experimental: Passive avoidance task (step-down test): A step-down passive avoidance was examined using apparatus consisted of a box (25×25×40 cm), a floor with stainless-steel grid 2 mm in diameter at 8-mm intervals, and a rubber platform (4 cm diameter, 4 cm height) set on the grid in one corner. Electric stimulation was given through the grid connected with a scrambled shock generator. […] For this trial, each rat was placed gently on the platform and allowed to habituate freely for 3 min, and then electric shock (0.4 mA) were delivered to the grid. If the rat stepped down from the platform, the electric shock was delivered to the rat on the grid floor. The cut off time was 2 min. A retention trail was performed 24 hr after the acquisition trail. Each rat was again placed on the platform. Time (step-down latency) that elapsed until rats stepped down from the electric grid of the platform to shock free zone was recorded. […] An error was counted when ever the rat stepped down from platform. The number of error made in 2 min was recorded.

| Structure (SMILES) | Paw volume (ml) at 3 h λ carrageenin ([1]; 100 mg/kg orally 1 h before carrageenin, six rats, mean ± SEM) | inhibition at 100 mg/kg ([1]; Rattus norvegicus, inhibition of paw oedema at 3 h vs control, 100 mg/kg, (1−VT/VC)×100) [%] | number of mistakes and latency period (in words) ([2]; scopolamine treated group) | Latency ([2]; step-down test, rats n=10, scopolamine 0.4 mg/kg i.p., formulations 100 mg/kg, tacrine dose not given, mean ± S.E.M.) [s] |
| --- | --- | --- | --- | --- |
| COc1ccc2c(c1)c(CC(=O)O)c(C)n2C(=O)c1ccc(Cl)cc1 [Indomethacin] | 0.18 ± 0.02^c ml | 79.3 |  |  |
| CN1[C@@H]2C[C@@H](OC(=O)[C@H](CO)c3ccccc3)C[C@H]1[C@@H]1O[C@@H]12 [Scopolamine] |  |  | significant increase in the number of mistakes as well as increase the latency period | 8.8 ± 0.03 |
